Test results from patent US20150030706A1, “USE OF ESSENTIAL OILS, SUPERCRITICAL EXTRACTS AND AQUEOUS RESIDUES GENERATED DURING A PROCESS FOR OBTAINING ORGANIC EXTRACTS FROM THE ARTEMISIA ABSINTHIUM L. PLANT” (CONSEJO SUPERIOR DE INVESTIGACIONES CIENTIFICAS (CSIC), priority 2012, published 2015).

Test system: Meloidogyne javanica
Experiment: Nematicide activity against infective juveniles (J2)
Assay type: in vivo
Protocol: The assays were carried out according to the methodology described for Meloidogyne sp (Hernández-Carlos et al. 2011, Sosa et al. 2012) using the biological stage of infected juvenile (J2) Meloidogyne javanica in the assays. The activity of each product was quantified at different concentrations, shown in Table 5 and in at least four copies, each bio-assay was repeated at least three times and the nematostatic/nematicide activity was determined from the percentage of infected juvenile plants immobilised/which died.

Compound: C=C/C(C)=C\CC(O)C(C)(C)O (stereo not shown) [(Z)-2,6-dimethylocta-5,7-diene-2,3-diol]
- M. javanica % J2 immobilised Average (Concentration 0.02 μg/μl): 4.2%
- M. javanica % J2 immobilised Average (Concentration 0.1 μg/μl): 19.7%
- M. javanica % J2 immobilised Average (Concentration 0.25 μg/μl): 43.9%
- M. javanica % J2 immobilised Average (Concentration 0.5 μg/μl): 100%
